Key:
NCI-H2122 cells = test: NCI-H2122 CTG proliferation assay (120 h) (NSCLC, G12C); format: cell-based; conditions: Homo sapiens
Method: The CTG assay is designed to measure quantitatively the proliferation of NCI-H2122 cells (ATCC CRL-5985), using the CellTiter Glow Assay Kit (Promega G7571). Cells are grown in RPMI medium (ATCC) supplemented with Fetal Calf Serum (Life Technologies, Gibco BRL, Cat. No. 10270-106). On “day 0” 200 NCI-H2122 cells are seeded in 60 μL RPMI ATCC+10% FCS+Penstrep in a black 384-well plate, flat and clear bottom (Greiner, PNr. 781091). Cells are then incubated in the plates at 37° C. in a CO2 incubator overnight. On day 1, compounds (10 mM stock in DMSO) are added with the ECHO acoustic liquid handler system (Beckman Coulter), including DMSO controls. Plates are incubated for 120 h, and cell viability is measured using CellTiter-Glo luminescent cell viability reagent (Promega product code G7570). Viability (stated as percent of control) is defined as relative luminescence units RLU of each well divided by the RLU of cells in DMSO controls. […] values are determined from viability measurements by non-linear regression using a four parameter model. • AsPC-1 CTG proliieradon assay (120 h) (pancreatic cancer, G12D)

AsPC-1 cells = test: AsPC-1 CTG proliferation assay (120 h) (pancreatic cancer, G12D); format: cell-based; conditions: Homo sapiens, ASPC1
Method: The CTG assay is designed to measure quantitatively the proliferation of AsPC-1 cells (ATCC CRL-5985), using the CellTiter Glow Assay Kit (Promega G7571). Cells are grown in RPMI medium (ATCC) supplemented with Fetal Calf Serum (Life Technologies, Gibco BRL, Cat. No. 10270-106). On “day 0” 2000 AsPC-1 cells are seeded in 60 μL RPMI ATCC+10% FCS+ Penstrep in a 384-well plate, flat and clear bottom (Greiner, PNr. 781091). Cells are then incubated in the plates at 37° C. in a CO2 incubator overnight. On day 1, compounds (10 mM stock in DMSO) are added with the ECHO acoustic liquid handler system (Beckman Coulter), including DMSO controls. Plates are incubated for 120 h, and cell viability is measured using CellTiter-Glo luminescent cell viability reagent (Promega product code G7570). Viability (stated as percent of control) is defined as relative luminescence units RLU of each well divided by the RLU of cells in DMSO controls.

SAS cells = test: SAS CTG proliferation assay (120 h) (HNSCC, wt amplified); format: cell-based
Method: SAS cells (JCRB0260) are dispensed into 384-well plates, flat and clear bottom (Greiner, PNr. 781091) at a density of 300 cells per well in 60 μL DMEM:F12 (Gibco 31330-038)+10% Fetal Calf Serum (HyClone, PNr.: SH30084.03) and incubated at 37° C. in a CO2 incubator overnight The next day, compounds (10 mM stock in DMSO) are added with the ECHO acoustic liquid handler system (Beckman Coulter), including DMSO controls. Plates are incubated for 120 h, and cell viability is measured using CellTiter-Glo luminescent cell viability reagent (Promega product code G7570). Viability (stated as percent of control) is defined as relative luminescence units RLU of each well divided by the RLU of cells in DMSO controls.

[1] = Metabolic (microsomal) stability assay, human liver microsomes (HLM); format: in vitro ADME; conditions: 1 μM, predicted clearance as percent of liver blood flow
Method: The metabolic degradation of the test compound is assayed at 37° C. with pooled liver microsomes (mouse (MLM), rat (RLM) or human (HLM)). The final incubation volume of 48 μL per time point contains TRIS buffer (pH 7.5; 0.1 M), magnesium chloride (6.5 mM), microsomal protein (0.5 mg/mL for mouse/rat, 1 mg/mL for human specimens) and the test compound at a final concentration of 1 μM. Following a short preincubation period at 37° C., the reactions are initiated by addition of 12 μL beta-nicotinamide adenine dinucleotide phosphate, reduced form (NADPH, 10 mM) and terminated by transferring an aliquot into solvent after different time points (0, 5, 15, 30, 60 min). Additionally, the NADPH-independent degradation is monitored in incubations without NADPH, terminated at the last time point by addition of acetonitrile. The quenched incubations are pelleted by centrifugation (4,000 rpm, 15 min). An aliquot of the supernatant is assayed by LC-MS/MS to quantify the concentration of parent compound in the individual samples.
In vitro intrinsic clearance (CLint, in vitro) is calculated from the time course of the disappearance of the test drug during the microsomal incubation. Each plot is fitted to the first-order elimination rate constant as C(t)=C0*exp(−ke*t), where C(t) and C0 are the concentration of unchanged test drug at incubation time t and that at preincubation and ke is the disappearance rate constant of the unchanged drug. Subsequently, CLint, in vitro (μL min^−1·amount protein) values are converted to predicted CLint, in vitro (mL min^−1·kg^−1) from incubation parameters according to the equation CLint, in vitro=CLint, in vitro×(incubation volume (ml)/amount protein (mg))×(amount protein (mg)/g liver tissue)×(liver weight/body wt.). For better across species comparison the predicted clearance is expressed as percent of the liver blood flow [% QH](mL min^−1·kg^−1) in the individual species. In general, high stability (corresponding to low % QH) of the compounds across species is desired.

[2] = Plasma protein binding assay (PPB), equilibrium dialysis; format: in vitro ADME; conditions: bovine, 10% FCS in PBS, read-out: PPB 10% FCS (% fu)
Method: Binding of test compounds to plasma was determined using equilibrium dialysis (ED) and quantitative mass spectrometry interfaced with liquid chromatography (LC-MS). In brief, ED was performed with dialysis devices consisting of two chambers separated by a semipermeable membrane with a molecular weight cut-off of 5-10 kg/mol. One chamber was filled with 10% FCS in PBS containing 1-10 μmol/L test compound and the other chamber was filled with phosphate-buffer saline (PBS) with or without dextran. The dialysis chamber was incubated for 3-5 hours at 37° C. After incubation, protein was precipitated from aliquots of each chamber and the concentration of test compound in the supernatant of the plasma-containing compartment (cserum) and of the buffer-containing compartment (cbuffer) was determined by LC-MS. The fraction of unbound test compound (not bound to plasma) (fu) was calculated according to the following equation: […]

| Compound | IC50 (NCI-H2122 cells) [nM] | IC50 (AsPC-1 cells) [nM] | IC50 (SAS cells) [nM] | HLM QH [%] [1] [%] | fraction unbound [2] |
| --- | --- | --- | --- | --- | --- |
| C[C@H](Oc1cc(OCCO)nc(-c2noc3c2CCC[C@@]32CCCc3sc(N)c(C#N)c32)n1)[C@@H]1CCCN1C [II-6] | 1650 | 1760 | 40 | 40 | 0.72 |
| COCCOc1cc(O[C@@H](C)[C@@H]2CCCN2C)nc(-c2noc3c2CCC[C@@]32CCCc3sc(N)c(C#N)c32)n1 [II-5] | 861 | 2550 | 67 | 31 | 0.5 |
| C[C@H](Oc1cc(Nc2nccs2)nc(-c2noc3c2CCC[C@@]32CCCc3sc(N)c(C#N)c32)n1)[C@@H]1CCCN1C [II-12] | 1740 | 2920 | 594 | <24 | 0.07 |
| C[C@H]1CN(C)CCCN1c1cc(O[C@@H]2CNC2(C)C)nc(-c2noc3c2CCC[C@@]32CCCc3sc(N)c(C#N)c32)n1 [II-28] | 9740 | 443 | 4450 | 26 | 0.59 |
| C[C@H](Oc1cc(O[C@H]2CCOC2)nc(-c2noc3c2CCC[C@@]32CCCc3sc(N)c(C#N)c32)n1)[C@@H]1CCCN1C [II-4] | 817 | 2750 | 44 | 59 | 0.54 |
| C[C@H](Oc1cc(Nc2cccnn2)nc(-c2noc3c2CCC[C@@]32CCCc3sc(N)c(C#N)c32)n1)[C@@H]1CCCN1C [II-18] | 822 | 3010 | 171 | 41 | 0.61 |
| C[C@H](Oc1cc(OCC2(N(C)C)COC2)nc(-c2noc3c2CCC[C@@]32CCCc3sc(N)c(C#N)c32)n1)[C@@H]1CCCN1C [II-22] | 1710 | 298 | 84 | 53 | 0.46 |
| C[C@H](Oc1cc(OCC2(N(C)C)CC2)nc(-c2noc3c2CCC[C@@]32CCCc3sc(N)c(C#N)c32)n1)[C@@H]1CCCN1C [II-21] | 2200 | 277 | 577 | 48 | 0.72 |
| C[C@H](Oc1cc(Oc2cccnc2)nc(-c2onc3c2CCC[C@@]32CCCc3sc(N)c(C#N)c32)n1)[C@@H]1CCCN1C [Example I-2] | 740 | 1310 | 15 | 70 | 0.31 |
| C[C@H](Oc1cc(Nc2ncccn2)nc(-c2noc3c2CCC[C@@]32CCCc3sc(N)c(C#N)c32)n1)[C@@H]1CCCN1C [II-17] | 1650 | 2720 | 104 | <24 | 0.28 |
| C[C@H](Oc1cc(Sc2ncccn2)nc(-c2onc3c2CCC[C@@]32CCCc3sc(N)c(C#N)c32)n1)[C@@H]1CCCN1C [Example I-7] | 3610 | 10300 | 221 | 38 | 0.61 |
| C[C@H](Oc1cc(Nc2ccccn2)nc(-c2onc3c2CCC[C@@]32CCCc3sc(N)c(C#N)c32)n1)[C@@H]1CCCN1C [Example I-6] | 1120 | 3360 | 81 | <24 | 0.31 |
| C[C@H](Oc1cc(NCC2COC2)nc(-c2noc3c2CCC[C@@]32CCCc3sc(N)c(C#N)c32)n1)[C@@H]1CCCN1C [II-11] | 2130 | 2270 | 21 | 36 | 0.62 |
